The subject of experiment [1] is mice subjected to neonatal HI injury. Kind of experiment: Cue-induced fear conditioning after neonatal HI injury, 7 days intranasal treatment. Format: in vivo, mouse. As for the experimental part:
In the long-term study (7 days of intranasal treatment), […] of wild-type (WT) and C3aR^−/− mice subjected to neonatal HI injury and treated with either C3a or PBS were used; WT HI-C3a (n=5), WT HI-PBS (n=8), C3aR^−/− HI-C3a (n=7), C3aR^−/− HI-PBS (n=8). These mice were tested in a cue-induced fear conditioning test at P50 and brains were collected at P51 (FIG. 7A).
Neonatal HI injury was induced on postnatal day 9 (P9), as previously described with modifications for mice (Hedtjärn et al., 2002; Rice et al., 1981; Sheldon et al., 1998). Mice were anesthetized with 3.5% isoflurane (Baxter Medical, Kista, Sweden) for induction and 1.5% thereafter, in 1:1 oxygen and nitrous oxide. The left common carotid artery was dissected and permanently ligated with a prolene suture (6.0). […]
Cue-induced fear conditioning with a shock-paired tone and light cue was performed on P49 and P50 as previously described (Järlestedt et al., 2011). […] Freezing behaviour, a defensive response to a perceived threat, was defined as a complete lack of movement and quantified by scoring freezing behaviour (on video footage) as present or absent once every 10 s for 2 min. […] On P50, animals were again placed in the conditioning box and freezing behaviour was measured for 2 min. Following this, the shock-paired tone and light were presented for 30 s and freezing behaviour was then measured again for 2 min. […]

Experiment [2] shares this test system. Kind of experiment: Object recognition test after neonatal HI injury, 3 days intranasal treatment. Format: in vivo, mouse. The method, then:
In the short-term study (3 days of intranasal treatment), 3 groups of WT mice were used; animals subjected to neonatal HI injury and treated with either C3a (HI-C3a, n=18) or PBS (HI-PBS, n=18) and sham-operated animals treated with PBS (SHAM-PBS, n=19). These mice were tested in an open field and object recognition test (ORT) at P50-P54 and brains were collected at P55 (FIG. 8A).
Neonatal HI injury was induced on postnatal day 9 (P9), as previously described with modifications for mice (Hedtjärn et al., 2002; Rice et al., 1981; Sheldon et al., 1998). Mice were anesthetized with 3.5% isoflurane (Baxter Medical, Kista, Sweden) for induction and 1.5% thereafter, in 1:1 oxygen and nitrous oxide. The left common carotid artery was dissected and permanently ligated with a prolene suture (6.0). The incision was closed and infiltrated with lidocaine (Xylocain®, Astra Zeneca, Gothenburg, Sweden). Mice were returned to the dam for 1 hour and then placed in a chamber with humidified air at 36° C. for 10 min, then exposed to humidified 10% oxygen in nitrogen for 30 min at 36° C., and then kept in humidified air at 36° C. for 10 min before being returned to the dam. Sham animals were subjected to an incision in the neck on P9. These pups were also removed from the dam for the time duration that injured animals stayed in the chamber, but remained instead in a warming tray at 36° C. under normal oxygen conditions. At postnatal day 21 (P21) mice were weaned and group housed with same sex littermates.
Purified human C3a (Complement Technology Inc., Tyler, Tex., USA) was diluted in sterile phosphate buffered saline (PBS) to a concentration of 200 nM, and a total of 8 μl i.e. […] (4 μl/nostril; corresponding to ca. 2.56 μg/kg body weight) of peptide solution or PBS was given intranasally to awake and hand-restrained mice held in a supine position. Solutions were administered through a pipette tip, drop-wise in 2 μl-portions divided by 1 min intervals to allow for absorption. […] C3a or PBS was given every 24 hours for three (short-term study) or seven (long-term study) days starting 1 h after HI induction, i.e. between P9 and P11 or P9 and P15, respectively. Mice in each litter were randomly assigned to C3a or PBS treatment. Sham animals received PBS. The investigators carrying out behavioural studies and analysing data were blinded to treatment group.
The object recognition test is based on the innate preference of mice to explore a novel object rather than a familiar one. Therefore, animals that remember the familiar object will spend more time exploring the novel object (Leger et al., 2013). From 3 days before starting the test, mice were daily handled for 2 min to minimize the possible stress due the researcher interaction. All experiments were performed at the same time of the day, between 9 am and […], and inside of a plastic box of 50×50×50 cm dimensions where the light intensity was dim and equal in all parts of the apparatus. […] Prior to the familiarization session, during which two identical objects were introduced, mice were habituated to the apparatus for 10 min during 3 consecutive days. Activity on the first habituation day was recorded as an open field test to assess locomotor and exploratory activities. During the familiarization session, two identical 250 ml bottles filled with shredded paper were placed at an equal distance from the arena walls (approximately 5 cm). […]

With “C3a: Purified human C3a peptide (Complement Technologies), C3a receptor agonist, amino acid sequence SEQ ID NO: 1”, in experiment [1] (C3aR−/− mice, same protocol), the “extent of freezing, C3a vs PBS” value is on record as “did not differ”. In experiment [1] (WT mice, intranasal C3a once daily 7 days from 1 h after HI, p<0.05), the “freezing behavior after the conditioned cue vs HI PBS-treated mice” value is “significantly increased freezing behavior”. In addition, the “time exploring novel vs familiar object, long-term memory (24 h)” value in experiment [2] (C3a treated mice p<0.05) is recorded as “significantly longer time exploring the novel compared to familiar object”. In addition, the “exploratory behavior in the familiarization phase” value in experiment [2] (intranasal C3a 3 days from 1 h post-HI) is on record as “not altered”. Besides, the “time exploring the novel object, short-term memory (6 h), vs PBS-treated mice post-HI” value in experiment [2] (p<0.01) was “spent more time exploring the novel object”. In experiment [2] (p<0.05), the “total object exploration time, long-term memory (24 h), vs PBS” value is recorded as “longer” and the “total object exploration time, short-term memory (6 h), vs PBS” value was “longer total object exploration time”.

The values above are taken from patent US11266715B2, “C3A receptor agonists for use against ischemic brain injury, stroke, traumatic brain injury, spinal cord injury and neurodegenerative disorders” (priority 2016, dated 2022).
